Reference: patent US11135263B2 (priority 2014, dated 2021)
Entries after “also recorded” stand apart in the source; their conditions may differ. Read-outs that look alike come from different tables or passages of the source.

Experiments:
[1] = system: Staphylococcus aureus 6850; assay: mouse co-infection model, bacterial titers in lung homogenate; assay type: in vivo, Balb/C mice; conditions: S. aureus super-infection day 3, lungs day 4
Protocol: (§1) FIG. 17: Administration of U0126 leads to reduced bacterial titers in vivo independent of viral titers. 12 weeks old Balb/C mice were infected with 50 PFU of the influenza virus strain A/Puerto Rico/8/34 (PR8, H1N1) on day 0 (anesthesized with Isoflurane). Starting on day 1 mice were treated daily with i.p. injection of 30 mg/kg/day U0126 or solvent control (10% DMSO, 30% Cremophor EL, 60% PBS). On day 3 mice were infected with 5*10^7 CFU of Staphylococcus aureus 6850 under anesthesia with Isoflurane and directly treated with U0126 or solvent control. On day 4 lungs were removed and homogenized in PBS (0.1 g per 1000 μl PBS). For calculation of bacterial titers serial dilutions of the homogenate were plated on BHI agar. For determination of viral titers a standard plaque assay was performed. Statistical analysis was done using Mann-Whitney U Test (* p<0.05).
(§2) 8 weeks old Balb/C mice (5 per group) were infected with 50 PFU of influenza virus strain A/Puerto Rico/8/34 (PR8, H1N1) on day 0 (anesthesized with Isoflurane). 6 hrs post viral infection mice were treated with oral administration of 10 mg/kg/day Cobimetinib or solvent control (10% DMSO, 5% Tween 20, 85% PBS). Treatment was then performed daily. On day 3 mice were infected with 5*10^7 CFU of Staphylococcus aureus 6850 under anesthesia with Isoflurane and 6 hrs later treated with Cobimetinib or solvent control. […]

[2] = shown recently; cited from earlier work
[3] = system: influenza virus strain A/Puerto Rico/8/34 (PR8, H1N1); assay: mouse co-infection model, viral titers in lung homogenate (plaque assay); assay type: in vivo, Balb/C mice; conditions: lungs day 4
Protocol: as §1, §2

S. aureus 6850 [4] = assay type: cell-based, Staphylococcus aureus
[5] = system: avian influenza virus A/FPV/Bratislava/79 (H7N7); assay type: cell-based; conditions: for IV titers: 2 μM tamiflu vs Hepes, in absence or presence of S. aureus 6850; for virus titers: 18 hrs
[6] = system: influenza virus A/Puerto Rico/8/34 (H1N1); assay type: cell-based
ERK-1/2 phosphorylation = conditions: 50 μM U0126; western blot, 8 hrs
S. aureus 6850 [7] = assay type: cell-based, Staphylococcus aureus; remark: listed apart in the source
CCL3 = conditions: 50 μM U0126; H3N2 (MOI=5) with or without S. aureus 6850 (MOI=50); 8 hrs; preliminary results
[8] = system: Human lung epithelial cells (A549); assay type: cell-based
CCL5 = conditions: 50 μM U0126; H3N2 (MOI=5) with or without S. aureus 6850 (MOI=50); 8 hrs; preliminary results
S. aureus 6850 [9] = assay: bacterial internalisation (uptake) into A549 cells after 4 h preincubation; conditions: 2.5 ng/ml TNF-alpha, stimulation 4 hours prior bacterial infection; 120 min
S. aureus USA300 = assay: as above; conditions: 2.5 ng/ml TNF-alpha, stimulation 4 hours prior bacterial infection; MOI=5; 120 min
[10] = […], U0126 50 μM, SB202190 10 μM or LG-ASA 5 mM vs solvent control
[11] = […], U0126 50 μM, SB202190 10 μM or LG-ASA 5 mM vs solvent control, listed as SB02190

Question: Which results are given for `O=C(c1ccc(F)c(F)c1Nc1ccc(I)cc1F)N1CC(O)([C@@H]2CCCCN2)C1` [Cobimetinib, [3,4-difluoro-2-[(2-fluoro-4-iodophenyl)amino]phenyl] [3-hydroxy-3-[(2S)-2-piperidinyl]-1-azetidinyl]methanone]?
Answer: bacterial titers in vivo (lung) ([1]; Cobimetinib 10 mg/kg/day oral, daily): slight but clearly detectable reduction; also recorded: reduces; maximal tolerated dose [2]: 30 mg/kg/day; viral titers in vivo (lung) ([3]; Cobimetinib 10 mg/kg/day oral, daily from 6 hrs post viral infection): slight but clearly detectable reduction; also recorded: reduces

Question: Which results are given for `CCOC(=O)C1=C[C@@H](OC(CC)CC)[C@H](NC(C)=O)[C@@H](N)C1` [Oseltamivir]?
Answer: intracellular bacterial amounts (S. aureus load) (S. aureus 6850 [4]): rather increased; also recorded: enhances; IV titers ([5]; MOI=0.001): significantly reduced; IV titers ([5]; MOI=0.001, listed as tamiflu): reduces

Question: What does the source list for `Oc1ccc(-c2nc(-c3ccncc3)c(-c3ccc(F)cc3)[nH]2)cc1` [SB202190]?
Answer: IV replication (IV titers) [6, 10]: reduces; viral titers in presence of S. aureus [6, 10]: reduces; IV replication (IV titers) [6, 11]: inhibitory effects; viral titers in presence of S. aureus [6, 11]: reduced

Question: For `N#CC(=C(/N)Sc1ccccc1N)/C(C#N)=C(\N)Sc1ccccc1N` [U0126], which “bacterial titers in vivo (lung)” value ([1]; U0126 30 mg/kg/day i.p. daily from day 1, 30 mg/kg/day) is on record?
Answer: significantly reduced

Question: And the “effect on MEK/ERK signalling (ERK1/2 phosphorylation)” value (ERK-1/2 phosphorylation)?
Answer: inhibitory effect

Question: And the “bacterial titers of internalized S. aureus 6850” value (S. aureus 6850 [4])?
Answer: only slightly decreased

Question: And the “intracellular amounts of S. aureus (S. aureus load)” value (S. aureus 6850 [4])?
Answer: reduces

Question: What about the bacterial growth (S. aureus 6850 [7]) of the same molecule?
Answer: inhibited; also recorded: reduced

Question: And the “bacterial titers without living cells” value (S. aureus 6850 [7])?
Answer: reduced

Question: And the “IAV-induced CCL3 mRNA synthesis” value (CCL3)?
Answer: reduced

Question: What about the “viral protein synthesis (PB1)” value (viral protein (PB1)) of the same molecule?
Answer: reduction

Question: What about the “cell damage of cell layer (cell morphology)” value [8] of the same molecule?
Answer: much less damaged

Question: What about the “virus titers in vivo (lung)” value ([3]; U0126 30 mg/kg/day i.p. daily from day 1) of the same molecule?
Answer: fail of reduced virus titers

Question: What about the “IV replication (IV titers)” value [6] of the same molecule?
Answer: inhibitory effects; also recorded: reduces

Question: And the “viral titers in presence of S. aureus” value [6]?
Answer: reduces

Question: What about the virus titers ([5]; 50 μM U0126 vs solvent, co-infection with S. aureus 6850 (MOI=0.1)) of the same molecule?
Answer: reduced

Question: What about the virus titers ([5]; 50 μM U0126 vs solvent, singular infection, MOI=0.01) of the same molecule?
Answer: significant reduction

Question: And the “viral titers in presence of S. aureus” value ([5]; co-infection with S. aureus 6850 (MOI=0.5), virus MOI=0.001, 50 μM U0126 vs DMSO)?
Answer: reduces

Question: What about the “IV replication (IV titers)” value ([5]; singular infection, MOI=0.001, 50 μM U0126 vs DMSO) of the same molecule?
Answer: inhibitory effects; also recorded: reduces

Question: And the “IAV-induced CCL5 mRNA synthesis” value (CCL5)?
Answer: further reduced

Question: For `O=C(NOCC1CC1)c1ccc(F)c(F)c1Nc1ccc(I)cc1Cl` [CI-1040, 2-(2-chloro-4-iodophenylamino)-N-(cyclopropylmethoxy)-3,4-difluorobenzamide], which virus titers ([5]; 10 μM CI-1040 vs solvent, singular and co-infection with S. aureus 6850 (MOI=0.1), MOI=0.01) is on record?
Answer: reduction; also recorded: reduces

Question: What does the source list for TNF-α?
Answer: bacterial uptake upon NFκB activation (S. aureus 6850 [9]): enhanced uptake; bacterial uptake upon NFκB activation (S. aureus USA300): enhanced uptake
